Data taken from patent publication US20100184703A1, “USE OF PEPTIDE DERIVATIVES FOR TREATING PATHOLOGIES RESULTING FROM ISCHEMIA” (CHIESI FARMACEUTICI S.p.A., priority 2007, published 2010).
“Also recorded” adds a separate entry of the source. Peptide text beside a SMILES is read from it. * marks the point of attachment. X1 = COC(=O)CC(N*)C(=O)COc1c(F)cccc1F; Quinaldoyl = O=C(c1ccc2ccccc2n1)*

Key:
Format in all cases: in vivo, rat
[1] = system: ANF, BNP, fibronectin, β-MHC, TNFR1, TNFR2, TNFα, caspase-2 mRNA; experiment: Quantitative RT-PCR of heart failure, fibrosis, hypertrophy and TNFα signaling markers after ischemia/reperfusion; conditions: IR model; for mRNA expression level of TNFα / mRNA expression level of TNFα receptor 1 (TNFR1) / mRNA expression level of TNFα receptor 2 (TNFR2) / mRNA expression level of caspase-2: increase in vehicle-injected animals; for mRNA expression level of β-Myosin Heavy Chain (β-MHC): marker for hypertrophy development; for mRNA expression level of fibronectin: marker of fibrosis development; for mRNA expression level of Atrial Natriuretic Factor (ANF) / mRNA expression level of brain natriuretic peptide (BNP): marker of heart failure
Procedure: In a second series of experiments, quantitative RT-PCR was performed to evaluate the level of expression of 2 markers of heart failure, Atrial Natriuretic Factor (ANF) and Brain Natriuretic Factor (BNP) as well as a marker of myocardial fibrosis, fibronectine, and myocardial hypertrophy, βMHC. […] B. mRNA expression levels of fibronectin a marker of fibrosis development, and β-Myosin Heavy Chain (β-MHC) a marker for hypertrophy development

[2] = system: ventricular cardiomyocytes; experiment: Patch-clamp electrophysiological recordings on ventricular cardiomyocytes of PMI rats; conditions: for density of transitory current coming out (Ito): cardiomyocytes of the sub-epicardic layer; for membrane capacity (cellular size; hypertrophy induced by myocardial ischemia): cardiomyocytes after 4-5 months
Procedure: The isolated ventricular cardiomyocytes were obtained by enzymatic dissociation with collagenase by Langendorf reversed perfusion (Fauconnier, 2005). The rats were heparinized (0.2 ml, GIBCO® 1000 Ul/ml) and anaesthetized by intraperitoneal injection of pentobarbital ([…], Sanofi Santé, France). The heart was rapidly excised and a retrograde perfusion through the aorta, was performed for 5 min with a calcium-free washing solution (in mM: NaCl 117, KCl 5.7, NaHCO3 4.4, KH2PO4 1.5, MgCl2 1.7, HEPES 21, glucose 11, taurine 20, pH 7.2 (adjusted with NaOH) and O2-bubbled) at 37° C. The solution was then replaced by a similar medium containing 1.3 mg·ml^−1 of collagenase of type IV (Worthington, Freehold, N.J., USA) and perfused during 20-30 min. The heart was then perfused with the initial solution containing 2,3-butanedione monoxime as inhibitor of the muscular contraction (15 mM BDM). The ventricles were then delicately separated and, by mechanic stirring, the cardiomyocytes were liberated in the medium. The dissociated cells were washed in the same solution wherein increased concentrations of CaCl2 were added (0.3, 1, 1.8 mM). The cells of the sub-epicardial layer (EPI) were separated from the sub-endocardial layer (ENDO) by simple manual dissection.
The potentials of action (PA) and ionic currents were measured by the patch-clamp technique in whole cell configuration using an amplifier RK 400 (Biologic, Claix France) interfaced by a analogical/numerical converter DIGIDATA 1200 (Axon Instrument, Sunnyvale, Calif., USA) controlled by a PC. The acquisition and analysis of the data were realized with pCLAMP program (Axon Instrument, Sunnyvale, Calif., USA). The sampling frequency was of 10 KHz and the signals filtrated at 3 KHz. Pipettes comprised between 1 and 1.5 MΩ were used to ensure a good quality of voltage. For the measure of the potentials of action, the pipettes were filled with an internal solution (in mM: 130 KCl, 25 HEPES, 3 MgATP, 0.4 NaGTP, and 0.5 EGTA; the pH was adjusted at 7.2 with KOH). The external medium was composed of (in mM): 135 NaCl, 1 MgCl2, 4 KCl, 11 glucose, 2 HEPES, and 1.8 CaCl2; the pH was adjusted to 7.2. with NaOH.
The PA were started by injections of current of 0.2 ms at an intensity slightly higher than the supraliminal intensity threshold. The transitory potassium current coming out (Ito) was measured with the same internal and external solution (10 μM of tetrodotoxine (TTX) and 2 mM of cobalt chloride were added to the external medium to become independent from the […] and calcic currents, respectively. Ito was measured from depolarizing pulses.
The patch-clamp electrophysiological technique enables the membrane capacity (which reflects the cellular size) to be measured (this capacity reflects the cellular size). The results obtained with the above animals groups confirm the hypertrophy induced by the myocardial ischemia.

TNFα, IL1β, IL10 = experiment: Multiplex assay (Luminex) of circulating cytokines after ischemia-reperfusion; conditions: IR model; for circulating level of TNFα: injected 15 min prior to the reperfusion, compared to sham-operated; for IL-1β elevation / IL-10 elevation: within the first 24 hours of reperfusion
Procedure: Another series of experiments was conducted in the rat model of ischemia-reperfusion. Ischemia and reperfusion is well known to trigger an acute inflammatory process in animal model as well as in human. In our rat model, at the euthanasia, blood sample were collected in order to measure the inflammatory response on sera. This was performed by multiplex assay (Luminex technology). Three parameters were simultaneously measured at various time after myocardial reperfusion the pro inflammatory cytokines TNFα and IL1β as well as the anti-inflammatory cytokine IL10. […] B-C. […] In summary, caspase 2 inhibition prevents the acute inflammatory response occurring during the first 24 hours after myocardial reperfusion. *p<0.05 compared to sham-operated animals, n≧5 animals.

[3] = system: single ventricular cardiomyocytes; experiment: Ca2+ handling and cell shortening of cardiomyocytes isolated after ischemia-reperfusion; conditions: 30 min ischemia, 10 days reperfusion; for sarcoplasmic reticulum Ca2+ load: 10 mM caffeine, versus sham-operated; for amplitude of cytosolic Ca2+ transients: 0.5 Hz field stimulation
Procedure: Experiments were carried out on single ventricular cardiomyocytes isolated from rats after 30 minutes of myocardial ischemia followed by 10 days of reperfusion. Cardiomyocytes were loaded with a fluorescent calcium indicator (Fluo4) in order to measure calcium transient evoked by 0.5 Hz field stimulation. Cell shortening was also simultaneously recorded as an index of cardiomyocyte contraction. […] These deleterious effects classically reported by others in similar experimental conditions Under TRP601 or QV-D-oph treatment Ca^2+ transients amplitude was unchanged B. Similarly, Ca^2+ release kinetics estimated by the amplitude/time to peak (TT) ratio was slowed down in cardiomyocytes of untreated animals, whereas under TRP601 or QV-D-oph treatment Ca^2+ release was unaffected. C. Altered Ca^2+ transient kinetics in vehicle-treated animal are accompanied by a decrease in sarcoplasmic reticulum Ca^2+ load (estimated by application of 10 mM caffeine). […] (*p<0.05 compared to sham-operated animals, n≧5 animals).

Compound: COC(=O)CC(NC(=O)[C@H](C)NC(=O)[C@@H](NC(=O)[C@H](CC(=O)OC)NC(=O)[C@@H](NC(=O)c1ccc2ccccc2n1)C(C)C)C(C)C)C(=O)COc1c(F)cccc1F (stereo partly drawn) [D1, (3S,6S,9S,12S)-methyl 15-(2-(2,6-difluorophenoxy)acetyl)-3,9-diisopropyl-6-(2-methoxy-2-oxoethyl)-12-methyl-1,4,7,10,13-pentaoxo-1-(quinolin-2-yl)-2,5,8,11,14-pentaazaheptadecan-17-oate] (Quinaldoyl-VD(OMe)VA-X1)
- mRNA expression level of TNFα [1]: prevented
- mRNA expression level of TNFα receptor 1 (TNFR1) [1]: prevented
- mRNA expression level of TNFα receptor 2 (TNFR2) [1]: prevented
- mRNA expression level of caspase-2 [1]: prevented
- mRNA expression level of β-Myosin Heavy Chain (β-MHC) [1]: blocked
- mRNA expression level of fibronectin [1]: blocked
- mRNA expression level of Atrial Natriuretic Factor (ANF) [1]: comparable to sham-operated animals
- mRNA expression level of brain natriuretic peptide (BNP) [1]: comparable to sham-operated animals
- density of transitory current coming out (Ito) [2]: very preserved; also recorded: significantly restored
- membrane capacity (cellular size; hypertrophy induced by myocardial ischemia) ([2]; pre-treatment): highly prevented
- potential of action (PA) duration remodeling, transmural EPI/ENDO gradient ([2]; pre-treatment, sub-epicardial and sub-endocardial cardiomyocytes): total absence of PA remodeling
- circulating level of TNFα (TNFα, IL1β, IL10): not significantly different
- IL-1β elevation (TNFα, IL1β, IL10): prevented
- IL-10 elevation (TNFα, IL1β, IL10): prevented
- Ca2+ release kinetics (amplitude/time to peak ratio) [3]: unaffected
- cell shortening [3]: avoided cell shortening decreasing
- sarcoplasmic reticulum Ca2+ load [3]: not significantly different
- amplitude of cytosolic Ca2+ transients [3]: unchanged

Compound: CC(C)[C@H](NC(=O)c1ccc2ccccc2n1)C(=O)N[C@@H](CC(=O)O)C(=O)COc1c(F)cccc1F [Q-VD-OPH]
- mRNA expression level of TNFα [1]: prevented
- mRNA expression level of TNFα receptor 1 (TNFR1) [1]: prevented
- mRNA expression level of TNFα receptor 2 (TNFR2) [1]: prevented
- mRNA expression level of caspase-2 [1]: prevented
- mRNA expression level of β-Myosin Heavy Chain (β-MHC) [1]: blocked
- mRNA expression level of fibronectin [1]: blocked
- mRNA expression level of Atrial Natriuretic Factor (ANF) [1]: comparable to sham-operated animals
- mRNA expression level of brain natriuretic peptide (BNP) [1]: comparable to sham-operated animals
- density of transitory current coming out (Ito) [2]: do not present any improvement; also recorded: no effect
- membrane capacity (cellular size; hypertrophy induced by myocardial ischemia) ([2]; pre-treatment): has not effect
- circulating level of TNFα (TNFα, IL1β, IL10): not significantly different
- IL-1β elevation (TNFα, IL1β, IL10): prevented
- IL-10 elevation (TNFα, IL1β, IL10): prevented
- Ca2+ release kinetics (amplitude/time to peak ratio) [3]: unaffected
- cell shortening [3]: avoided cell shortening decreasing
- sarcoplasmic reticulum Ca2+ load [3]: not significantly different
- amplitude of cytosolic Ca2+ transients [3]: unchanged
